Numbers after ± are expanded uncertainties. One block for each compound: values may come before it.
Conditions: Liquid, Ebulliometric method (Recirculating still)

vapor or sublimation pressure (390.98 K): 2 ± 0.3 kPa | vapor or sublimation pressure (410.82 K): 5.2 ± 0.3 kPa | vapor or sublimation pressure (422.47 K): 8.3 ± 0.3 kPa
SMILES: COC(=O)CCCCC(=O)OC [dimethyl 1,6-hexanedioate]

vapor or sublimation pressure (376.09 K): 2 ± 0.3 kPa | vapor or sublimation pressure (395.8 K): 5.2 ± 0.3 kPa | vapor or sublimation pressure (407.11 K): 8.3 ± 0.3 kPa
SMILES: COC(=O)CCCC(=O)OC [dimethyl pentanedioate]

vapor or sublimation pressure (371.53 K): 101.3 ± 5.1 kPa
SMILES: CCCCCCC [heptane]

The next lines start with the compound.

SMILES: C1CCCCC1 [cyclohexane]
vapor or sublimation pressure (353.94 K): 101.3 ± 5.1 kPa

SMILES: COC(=O)CCC(=O)OC [dimethyl 1,4-butanedioate]
vapor or sublimation pressure (363.39 K): 2 ± 0.3 kPa | vapor or sublimation pressure (382.13 K): 5.2 ± 0.3 kPa | vapor or sublimation pressure (393.49 K): 8.3 ± 0.3 kPa

From the NIST ThermoML archive (doi:10.1016/j.jct.2019.02.006)
